Our source for the GI50 and TGI values is PubChem BioAssay (NCI).

Among the test systems are A498 renal; A549 NSCLC; LOX IMVI melanoma; NCI-H23 lung; PC-3 prostate; SF-268 CNS; SK-OV-3 ovarian; SN12C renal; SW-620 colon; TK-10 renal.
Common to all, as to test: growth of human tumour cells (NCI), 48 h

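Five concentrations, 48 hours, 96-well plates. The concentration for 50% growth inhibition is given as GI50. TGI is the concentration that stops growth completely.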

With `COc1cc(-c2ccc[nH]2)[nH]c1/C=C1\N=C(C)C(C(=O)NC(C)C)=C1C`, the GI50 in the assay on A498 renal was 8.91 µM; in the assay on A549 NSCLC, 2.94 µM; in the assay on LOX IMVI melanoma, 0.74 µM; in the assay on NCI-H23 lung, 3.63 µM; in the assay with PC-3 prostate it was 4.67 µM; in the assay with SF-268 CNS it was 4.78 µM. Besides, the GI50 was 10.7 µM in the assay on SK-OV-3 ovarian, 10.7 µM in the assay on SN12C renal, 3.08 µM with SW-620 colon and 3.1 µM in the assay with TK-10 renal. The TGI in the assay with A498 renal was found to be 21.6 µM; in the assay on A549 NSCLC it was 10.5 µM; in the assay with LOX IMVI melanoma, 2.52 µM; in the assay with NCI-H23 lung, 16 µM; with PC-3 prostate, 19.3 µM; with SF-268 CNS, 18 µM. The TGI in the assay with SK-OV-3 ovarian is 22.8 µM; in the assay on SN12C renal, 24 µM; with SW-620 colon, 14.7 µM; in the assay with TK-10 renal, 9.71 µM.
Consider `C=C(c1ccc(C(=O)NCCCn2ccnc2)cc1)c1cc2c(cc1C)C(C)(C)CCC2(C)C`, for which the GI50 with A498 renal was 25.2 µM; in the assay on A549 NSCLC it was 1.14 µM; with LOX IMVI melanoma, 0.395 µM; in the assay on NCI-H23 lung, 3.69 µM; in the assay with PC-3 prostate, 0.158 µM; with SF-268 CNS, 3.83 µM. Besides, the GI50 in the assay on SK-OV-3 ovarian is 2.09 µM; in the assay on SN12C renal, < 0.0195 µM; in the assay with TK-10 renal, 2.97 µM. Besides, the TGI was > 100 µM with A498 renal; 16.4 µM in the assay with A549 NSCLC; 4.48 µM in the assay with LOX IMVI melanoma; 66.5 µM with NCI-H23 lung; > 51.7 µM in the assay on PC-3 prostate; > 100 µM in the assay on SF-268 CNS. The figures for the TGI with SK-OV-3 ovarian, with SN12C renal and with TK-10 renal were 5.59 µM, 10.8 µM and 7.87 µM, respectively.
On to `COc1ccccc1CNCCCN1C(=O)c2ccc3c4c(ccc(c24)C1=O)C(=O)N(CCCNCCCCN)C3=O`, for which the GI50 in the assay on A498 renal was 0.972 µM; in the assay on A549 NSCLC it was 0.29 µM; in the assay on LOX IMVI melanoma it was 0.202 µM; in the assay with NCI-H23 lung, 0.222 µM; in the assay with PC-3 prostate, 0.307 µM; in the assay on SF-268 CNS it was 0.29 µM. For the same compound, the GI50 with SK-OV-3 ovarian was 0.495 µM; in the assay with SW-620 colon, 0.161 µM; in the assay on TK-10 renal, 0.976 µM. Besides, the TGI worked out at 2.55 µM with A498 renal; 1.06 µM in the assay on A549 NSCLC; 0.557 µM in the assay on LOX IMVI melanoma; 0.595 µM with NCI-H23 lung; 2.35 µM in the assay on PC-3 prostate; 1.68 µM in the assay on SF-268 CNS. The TGI in the assay with SK-OV-3 ovarian amounted to 2.86 µM; with SW-620 colon, 0.858 µM; in the assay with TK-10 renal it was 4.63 µM.
As to `COc1ccc([C@H]2c3[nH]c4ccccc4c3C[C@H]3C(=O)N(CCCCCCC(=O)NO)CC(=O)N23)cc1`, the GI50 in the assay with A498 renal was 2.91 µM; in the assay with A549 NSCLC, 5.28 µM; in the assay with LOX IMVI melanoma it was 1.54 µM; in the assay with NCI-H23 lung it was 1.96 µM; in the assay on PC-3 prostate, 2.42 µM; in the assay with SF-268 CNS, 7.7 µM. Also, the GI50 in the assay with SK-OV-3 ovarian was 3.02 µM; in the assay with SN12C renal, 4.19 µM; with SW-620 colon, 1.03 µM; with TK-10 renal it was 2.86 µM. Further, the TGI in the assay with A498 renal is 9.55 µM; with A549 NSCLC, > 33.3 µM; in the assay on LOX IMVI melanoma, 5.91 µM; in the assay on NCI-H23 lung, 28.7 µM; with PC-3 prostate it was > 33.3 µM; in the assay with SF-268 CNS it was > 33.3 µM. For the same compound, the TGI in the assay on SK-OV-3 ovarian was > 33.3 µM; in the assay with SN12C renal, > 33.3 µM; with SW-620 colon, > 33.3 µM; with TK-10 renal, 32.7 µM.
Turning to `COc1cc(COC(=O)N(C)[C@@H](Cc2ccccc2)C(=O)O)c([N+](=O)[O-])cc1OC`, the TGI with A549 NSCLC, with NCI-H23 lung, in the assay with PC-3 prostate, in the assay on SF-268 CNS, with SK-OV-3 ovarian and in the assay with SN12C renal was > 100 µM in each case. Also, in the assay on SW-620 colon, the TGI was > 100 µM.
For the compound `O=C(Nc1ccc(-n2cc(-c3ccncc3)c(-c3ccc(Cl)c(O)c3)n2)cc1)c1ccc(Cl)c(Cl)c1`, the GI50 was 35.7 µM in the assay with A498 renal; 6.71 µM in the assay on A549 NSCLC; 4.18 µM in the assay with NCI-H23 lung; 4.18 µM in the assay on PC-3 prostate; > 100 µM in the assay on SF-268 CNS; 2.08 µM in the assay with SK-OV-3 ovarian. Further, the GI50 in the assay with SN12C renal is 5.7 µM; in the assay with SW-620 colon, 4.42 µM; with TK-10 renal it was > 100 µM. Further, the TGI in the assay on A498 renal, in the assay with A549 NSCLC, in the assay on NCI-H23 lung, with PC-3 prostate, in the assay on SF-268 CNS and in the assay on SK-OV-3 ovarian was > 100 µM throughout. In addition, the TGI in the assay on SN12C renal, in the assay with SW-620 colon and in the assay with TK-10 renal was > 100 µM in each case.
Consider `CC(=O)OCCc1cc2ccccc2oc1=O`, for which the TGI with A498 renal, in the assay on A549 NSCLC, in the assay on LOX IMVI melanoma, in the assay on NCI-H23 lung, with PC-3 prostate and with SF-268 CNS was > 100 µM in each case. In addition, the TGI with SN12C renal and in the assay on SW-620 colon was > 100 µM in each case.
For the compound `Cc1ncc([N+](=O)[O-])n1CCOc1ccc(C(=O)/C=C/c2ccc(C(F)(F)F)cc2)cc1`, the GI50 with A498 renal is 6.57 µM; in the assay with A549 NSCLC, 2.42 µM; in the assay with LOX IMVI melanoma, 2.21 µM; with PC-3 prostate, 2.25 µM; in the assay with SF-268 CNS, 2.72 µM; with SK-OV-3 ovarian, 4.13 µM. For the same compound, the GI50 with SN12C renal is 3.03 µM; in the assay on SW-620 colon, 1.76 µM. Moreover, the TGI in the assay with A498 renal worked out at 20.2 µM; in the assay on A549 NSCLC, 8.5 µM; with LOX IMVI melanoma it was 5.6 µM; with PC-3 prostate, 12.2 µM; in the assay with SF-268 CNS, 8.49 µM; in the assay on SK-OV-3 ovarian, 15.3 µM. For the same compound, the values for the TGI with SN12C renal and in the assay on SW-620 colon were 11.6 µM and 4.03 µM, respectively.
As for `c1ccc(-c2nc3ccccc3[nH]2)c(OCCCCCOc2ccccc2-c2nc3ccccc3[nH]2)c1`, the GI50 in the assay with A498 renal is 12.1 µM; with LOX IMVI melanoma, 12.9 µM; in the assay on NCI-H23 lung it was 13.1 µM; with PC-3 prostate, 7.64 µM; with SF-268 CNS it was 3.44 µM; in the assay with SK-OV-3 ovarian, 14.2 µM. In addition, the GI50 in the assay on SN12C renal is 8.55 µM; with SW-620 colon, 3.18 µM; in the assay with TK-10 renal, 13 µM. Moreover, the TGI in the assay with A498 renal came to 25.5 µM; in the assay with LOX IMVI melanoma, 29.8 µM; in the assay on NCI-H23 lung it was 45.4 µM; in the assay with PC-3 prostate, 96.8 µM; in the assay with SF-268 CNS it was 23.2 µM; in the assay on SK-OV-3 ovarian it was 34 µM. In addition, the TGI came out at 24.5 µM in the assay with SN12C renal, 12.9 µM in the assay with SW-620 colon and 30.8 µM with TK-10 renal.
